Data published in patent US20040034039A1, “Solid preparations” (priority 2000, published 2004).

Assay: Contact angle of a water drop on a compression-molded product
Type: physicochemical
Details: purified water drop on 300 mg, 13 mm compression-molded product (1 ton/cm^2), 15 seconds after placing
Procedure: The “water-repellent physiologically active substance” to be used in the present invention is exemplified by a substance difficult to get wet, or having a large contact angle, and the like. A specific example thereof is a physiologically active substance having a contact angle of not less than 40 degrees, preferably not less than 60 degrees, more preferably not less than 80 degrees, as measured by forming a compression-molded product (300 mg) having a diameter of 13 mm with Shimadzu autograph (AG-5000B, manufactured by Shimadzu Corporation) at a load of 1 ton/cm^2, placing one drop of purified water on the surface thereof with a syringe, and determining the contact angles of the water drop at 15 seconds after placing with an automatic contact angle meter (CA-Z, manufactured by Kyowa Interface Science Co., Ltd.), and the like. The contact angle of a representative highly water-repellent substance, magnesium stearate, compound A to be mentioned later: (5-(N-benzyl-N-methylaminomethyl)-1-(2,6-difluorobenzyl)-6-[4-(3-methoxyureido)phenyl]-3-phenylthieno[2,3-d]jpyrimidine-2,4(1H,3H)-dione), and compound B to be mentioned later (3-(N-benzyl-N-methylaminomethyl)-4,7-dihydro-5-isobutyryl-7-(2,6-difluorobenzyl)-2-[4-[(1-hydroxycyclopropyl)carbonylamino]phenyl]-4-oxothieno[2,3-b]pyridine) as measured according to the aforementioned method were about 96 degrees, about 90 degrees and about 88 degrees respectively.

Compound	contact angle
CONC(=O)Nc1ccc(-c2sc3c(c2CN(C)Cc2ccccc2)c(=O)n(-c2ccccc2)c(=O)n3Cc2c(F)cccc2F)cc1 [compound A, 5-(N-benzyl-N-methylaminomethyl)-1-(2,6-difluorobenzyl)-6-[4-(3-methoxyureido)phenyl]-3-phenylthieno[2,3-d]pyrimidine-2,4(1H,3H)-dione]	about 90 degrees
CC(C)C(=O)c1cn(Cc2c(F)cccc2F)c2sc(-c3ccc(NC(=O)C4(O)CC4)cc3)c(CN(C)Cc3ccccc3)c2c1=O [compound B, 3-(N-benzyl-N-methylaminomethyl)-4,7-dihydro-5-isobutyryl-7-(2,6-difluorobenzyl)-2-[4-[(1-hydroxycyclopropyl)carbonylamino]phenyl]-4-oxothieno[2,3-b]pyridine]	about 88 degrees
magnesium stearate [reference compound]	about 96 degrees
